Data set [1] is described as follows: in vitro. The note with it: mouse, liver microsomes. (Liver microsomes are vesicles of endoplasmic reticulum, rich in cytochrome P450 enzymes.)
Data set [2] can be described thus: in vitro. The note with it: human, liver microsomes.
Data set [3] can be described thus: physchem.
Data set [4] in a line: physchem. The note with it: octanol/water, pH 7.4.
Data set [5] is described as follows: physchem. The note with it: octanol/water.
For data set [6], the system named is Human immunodeficiency virus 1. Kind of data set: microbe, parasite or virus in culture.
A further data set can be described thus: cells. The note with it: Homo sapiens, Platelet, Plasma.
Data set [7] can be described thus: physchem. This is another data set of the same source.
Data set [8] relates to Platelet. Kind of data set: cells. Conditions: Homo sapiens, Plasma.
Data set [9] concerns Platelet. As to the kind of experiment: cells. Conditions: Homo sapiens, Plasma. The source holds these as a separate data set.
The species named for a further data set is Rattus norvegicus. Kind of data set: animal or person. The note with it: read-out: INH.
The nature of data set [10]: in vitro. The note with it: human, Caco-2.
Data set [11] can be described thus: in vivo. Conditions: rat, po.
The nature of data set [12]: in vitro. The note with it: rat, liver microsomes.
A short description of data set [13]: in vitro. The note with it: human, Caco-2. The source holds these as a separate data set.
Data set [14] in a line: physchem. The note with it: octanol/water, pH 7.4. This is another data set of the same source.
The nature of data set [15]: in vitro. Conditions: human, liver microsomes. The source holds these as a separate data set.
Data set [16] deals with Respiratory syncytial virus. Kind of data set: microbe, parasite or virus in culture. The note with it: human respiratory syncytial virus.
For the next data set, the system named is Syrian golden hamster. As to the kind of experiment: animal or person. The note with it: Mesocricetus auratus.
Data set [17] can be described thus: in vivo. Conditions: rat.
The next data set can be described thus: clinical. Conditions: human, in vivo.

SMILES strings stand for the structures.

One may read the microsomal CLint as a measure of how fast metabolising enzymes remove a compound, apart from limits set by blood flow. Broadly, the solubility is the concentration that dissolves in the medium under given conditions. Low readings indicate little dissolved substance, high ones much dissolved substance. Broadly, the logD is lipophilicity at a set pH, counting ionised and neutral species. Higher therefore signals a more lipophilic compound. In general, logP refers to a log measure of how a compound divides between an organic and an aqueous phase. The low end stands for a more hydrophilic compound, the high end for a more lipophilic compound. Broadly, the EC90 is the concentration at which the effect reaches the 90% level. A lower EC90 goes with an effect from little substance. Broadly, the EC50 is the midpoint of the concentration-response curve. Low readings indicate a more potent agent, high ones a less potent agent. A word on the pKa: it is the pH at which an ionisable group is half protonated. Read a high pKa as a group that holds its proton tightly. As a reminder, the Papp is the rate of passage across a membrane or cell layer, normalised by area and donor concentration. A high value points to fast passage. Usually bioavailability stands for the share of a dose that reaches the circulation, judged against a reference dose that is usually intravenous. The half-life is the time needed for the level to fall by half in the phase considered. Low readings indicate rapid decline, high ones slow decline. A word on the ED50: it is the dose that gives a 50% effect, or the effect in half of the subjects.

`CN(C)CCCCc1ccc(C2COC2)cc1`: the microsomal CLint in the data set “in vitro [1]” worked out at 27 µL/min/mg; in the data set “in vitro [2]” it was 2 µL/min/mg. The molecule further returned a solubility in “physchem [3]” of 4000 µg/mL. Consider `CN(C)CCCCc1ccc(C(C)(C)C)cc1`, for which the logD in “physchem [4]” was 1.8. The molecule also came in with a logP in the data set “physchem [5]” of 4.3. The microsomal CLint turned out to be 417 µL/min/mg in the data set “in vitro [1]” and 16 µL/min/mg in “in vitro [2]”. In the data set “physchem [3]”, this molecule returned a solubility of less than 1 µg/mL. The molecule `CN(C)CCCCc1ccc(C2(C)COC2)cc1` registered a microsomal CLint in the data set “in vitro [1]” of 43 µL/min/mg. In addition, the concentration in solution in “physchem [3]” (solubility) came to 4400 µg/mL. For the molecule `CN(C)CCC1(Cc2ccc(C(C)(C)C)cc2)COC1`, the intrinsic clearance (microsomal CLint) in the data set “in vitro [1]” was 13 µL/min/mg; in “in vitro [2]” it was 6 µL/min/mg. For the same molecule, the solubility in the data set “physchem [3]” came out at 4100 µg/mL. On the same counts, the results for `CN(C)C1(CCCc2ccc(C(C)(C)C)cc2)COC1` are 580 µL/min/mg, 13 µL/min/mg and 57 µg/mL. `CN(C)CCCC1(c2ccc(C(C)(C)C)cc2)COC1` showed a microsomal CLint in the data set “in vitro [1]” of 147 µL/min/mg. The molecule also displayed a solubility in the data set “physchem [3]” of 270 µg/mL. In data set [6], `O=C(N[C@H]1c2ccccc2C[C@H]1O)[C@H](Cc1ccccc1)CC(O)C[C@@H](Cc1ccccc1)C(=O)N[C@H]1c2ccccc2C[C@H]1O` returned a 90% effect concentration (EC90) of 23 nM. In “physchem [5]”, `NCc1cc(F)c(O)c(F)c1` gave a logP of 1.01. In turn, `O=C(O)/C=C/c1cccc(CCc2nc(-c3ccccc3)c(-c3ccccc3)o2)c1` gave an EC50 in “cells” of 660 nM. In “cells”, `O=C(O)CCc1cccc(CCc2nc(-c3ccccc3)c(-c3ccccc3)o2)c1` returned an EC50 of 16000 nM.

In turn, `O=C(O)/C=C/c1cccc(OCc2nc(-c3ccccc3)c(-c3ccccc3)o2)c1` came in with a concentration for a half-maximal effect (EC50) in “cells” of 14000 nM. On to `Oc1c(F)cccc1F`, for which, in the data set “physchem [7]”, the pKa came to 7.12. Consider `O=C(O)COc1cccc(-c2ocnc2-c2nc(-c3ccccc3)c(-c3ccccc3)o2)c1`, for which the EC50 in the data set on Platelet [8] and in the data set on Platelet [9] was 27 nM in each case. On to `O=c1c(O)c(-c2ccccc2)c1=O`, for which the pKa in “physchem [7]” came out at 0.37. On to `O=S(=O)(Nc1ccncc1Oc1ccccc1)C(F)(F)F`, for which the inhibition in vivo at 30 mg/kg in the data set filed under Rattus norvegicus was 54.1%. Regarding `O=C(c1ccccc1)c1ccn(-c2cc(F)c(O)c(F)c2)c1`, the logP in the data set “physchem [5]” is 3.56. Turning to `Cc1nccn1-c1ccc(NC(=O)c2cc(C(F)(F)F)nn2-c2ccc3onc(N)c3c2)c(F)c1`, the Papp in the data set “in vitro [10]” is 7.41 ×10⁻⁶ cm/s. Same read-out and setting: the value for `Cc1nccn1-c1ccc(NC(=O)c2cc(C(F)(F)F)nn2-c2ccc3onc(N)c3c2)c(C#N)c1` was less than 0.1 ×10⁻⁶ cm/s.

For `CCc1cc(C#N)ccc1Nc1c(N[C@H](C)C(C)(C)C)c(=O)c1=O`, the bioavailability in the data set “in vivo [11]” worked out at 70%.

`O=C(N[C@H]1c2ccccc2C[C@H]1O)[C@H](Cc1ccccc1)C[Si](O)(O)C[C@@H](Cc1ccccc1)C(=O)N[C@H]1c2ccccc2C[C@H]1O` yielded an EC90 in data set [6] of 170 nM. `O=C(CCCN1CC[Si](O)(c2ccc(Cl)cc2)CC1)c1ccc(F)cc1`: the half-life in the data set “in vitro [12]” was 18 min; in the data set “in vitro [15]” it was 65 min. This molecule showed a pKa in “physchem [7]” of 9.27. The apparent permeability (Papp) in “in vitro [13]” worked out at 19.8 ×10⁻⁶ cm/s. In “physchem [14]”, the logD was found to be 2.77. The same molecule came in with a solubility in the data set “physchem [3]” of 78 µM. In [6], `COC(=O)N[C@@H](C(=O)NCCCC[C@H](CO)N(CC(C)C)S(=O)(=O)c1ccc(CN)cc1)C(c1ccccc1)c1ccccc1` showed an EC50 of 30 nM. In the data set “in vitro [15]”, `C=C(C)n1c(=O)n(Cc2nc3ccccc3n2CCCC#N)c2cnccc21` came in with a half-life of 11 min. Besides, the half-maximal effective concentration (EC50) in data set [16] is 3 nM. As for `COc1ccc(C2[C@@H](CCCc3ccccc3)C(=O)N2c2ccc(OC)cc2)cc1` (stereo not given in full), in the data set on Syrian golden hamster, the ED50 was determined as 2.2 mg/kg. Turning to `NCc1ccc(F)c(O)c1F`, the log partition coefficient (logP) in “physchem [5]” was 1.01. Regarding `O=C(O)CCc1cccc(OCc2nc(-c3ccccc3)c(-c3ccccc3)o2)c1`, the EC50 in the data set “cells” is greater than 80000 nM. Regarding `O=C(O)COc1cccc(/C=C\c2nc(-c3ccccc3)c(-c3ccccc3)o2)c1`, the EC50 in the data set with Platelet [8] and in the data set with Platelet [9] was 180 nM throughout.

In the data set “cells”, `O=C(O)COc1cccc(OCc2nc(-c3ccccc3)c(-c3ccccc3)o2)c1` had an EC50 of 1200 nM. As for `O=C(O)COc1cccc(-c2ncoc2-c2nc(-c3ccccc3)c(-c3ccccc3)o2)c1`, the concentration giving a half-maximal response (EC50) in the data set with Platelet [8] and in the data set with Platelet [9] was 160 nM throughout. Turning to `Cc1nccn1-c1ccc(NC(=O)c2cc(C(F)(F)F)nn2-c2ccc3onc(N)c3c2)cc1`, the Papp in “in vitro [10]” worked out at 0.82 ×10⁻⁶ cm/s. `O=C(O)Cn1ccc(C(=O)c2ccccc2)c1`: the logP in the data set “physchem [5]” amounted to 1.23. As for `COc1ccc(C(CN(C)C)[Si]2(O)CCCCC2)cc1` (racemic), in the data set “physchem [7]”, the pKa turned out to be 9.7. For the same molecule, the log partition coefficient (logP) in “physchem [5]” was 3.21. The pH-dependent lipophilicity (logD) in the data set “physchem [14]” was 0.92. For the molecule `COc1ccc(C(CN(C)C)C2(O)CCCCC2)cc1` (racemic) [VENLAFAXINE], in “physchem [5]”, the logP was 3.13. Also, in “physchem [14]”, the logD amounted to 0.88. As for `Cc1ccc(-c2cc(C(F)(F)F)nn2-c2ccc(S(N)(=O)=O)cc2)cc1` [CELECOXIB], in the data set “in vivo [17]”, the half-life is 3.5 h. The molecule `O=C1N(Cc2ccc(CO)cc2)[C@H](Cc2ccccc2)[C@H](O)[C@@H](O)[C@@H](Cc2ccccc2)N1Cc1ccc(CO)cc1` [DMP-323] displayed an EC90 in data set [6] of 57 nM. In the data set on Syrian golden hamster, `O=C1[C@H](CC[C@H](O)c2ccc(F)cc2)[C@@H](c2ccc(O)cc2)N1c1ccc(F)cc1` [EZETIMIBE] gave an ED50 of 0.04 mg/kg. In the data set “in vitro [13]”, `O=C(CCCN1CCC(O)(c2ccc(Cl)cc2)CC1)c1ccc(F)cc1` [HALOPERIDOL] returned a Papp of 18.9 ×10⁻⁶ cm/s. This molecule showed a log distribution coefficient (logD) in “physchem [14]” of 2.42. In the data set “physchem [3]”, this molecule showed a solubility of 90 µM.

In “clinical”, `CC#CCC(C)[C@H](O)/C=C/[C@@H]1[C@H]2C/C(=C/CCCC(=O)O)C[C@H]2C[C@H]1O` (stereo not given in full) [ILOPROST] came in with a half-life of 20 min. With `CS(=O)(=O)c1ccc(-n2nc(C(F)(F)F)cc2-c2ccc(F)cc2)cc1` [SC-58125], in the data set “in vivo [17]”, the half-life is 221 h.

(Values after ChEMBL document CHEMBL2203023, “Synopsis of some recent tactical application of bioisosteres in drug design” (J Med Chem, 2011).)
